In patent publication EP2931723B1, “NEW BICYCLIC COMPOUNDS AND THEIR USE AS ANTIBACTERIAL AGENTS AND -LACTAMASE INHIBITORS” (Fedora Pharmaceuticals Inc., priority 2012, dated 2014):

Assays:
Assay in all cases: MIC, antibacterial and synergistic activity
Format in all cases: cell-based
P. aerug JMI 149 = P. aerug JMI 149 (Bla+++D+)
E.coli JMI 4103 = E.coli JMI 4103 (KPC-2, Tem-1, CMY-Type)
K. pneumo JMI 4088 [1] = details: K. pneumo JMI 4088 (KPC-3 (Cpase)); substance alone
K.pneumo JMI 4109 [2] = details: K.pneumo JMI 4109 (SHV-1, SHV-12); substance alone
A. baumanii JMI 2659 = A. baumanii JMI 2659 (Ges-14 (Cpase))
K. pneumo JMI 2673 [3] = details: K. pneumo JMI 2673 (CTX-M14 (ESBL)); substance alone
E. coli JMI 10767 [4] = details: E. coli JMI 10767 (Wt)
E. coli JMI 4080 = system: E. coli JMI 4080
K. pneumo JMI 2673 [5] = details: K. pneumo JMI 2673 (CTX-M14 (ESBL))
In short: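 Antibacterial synergy was assessed by testing a β-lactamase inhibitor compound in combination with antibiotics. The inhibitor was held at a fixed concentration of 4 µg/mL, and the minimum inhibitory concentration of the partner antibiotic was determined in its presence.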

P. aerug JMI 2686 = P. aerug JMI 2686 (KPC-2 (Cpase))
In short: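 This antibacterial synergy assay measured the minimum inhibitory concentration of antibiotics combined with the disclosed inhibitor compounds. The inhibitor was held at 4 µg/mL throughout. The aim was to see whether the added compound strengthened the antibiotic's action against the tested bacteria.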

K. pneumo JMI 2699 = K. pneumo JMI 2699 (VIM-1, CTX-M3)
In short: (§1)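 Against bacteria that produce metallo β-lactamase, the inhibitor was added at a constant 4 µg/mL. Partner antibiotics were then titrated to obtain MICs.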

K. pneumo JMI 2674 = K. pneumo JMI 2674 (CTX-M15 (ESBL))
In short: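 Antibacterial activity was assessed as minimum inhibitory concentrations against a β-lactamase-producing bacterial strain. Each test inhibitor was combined with an antibiotic, with the inhibitor held at a fixed 4 µg/mL, to determine whether it acted synergistically and restored the antibiotic's effect against the resistant organism.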

E. coli JMI 2671 = system: E. coli JMI 2671
In short: as §1

K. pneumo JMI 4088 [6] = details: K. pneumo JMI 4088 (KPC-3 (Cpase))
In short: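 The compound was tested for synergy by combining it with antibiotics and measuring minimum inhibitory concentrations against β-lactamase producing bacteria. The inhibitor was present at a fixed concentration of 4 µg/mL together with the partner antibiotic, and MIC values were recorded.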

K.pneumo JMI 4109 [7] = details: K.pneumo JMI 4109 (SHV-1, SHV-12)
In short: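 Antibacterial synergy was assessed by pairing each inhibitor compound, at a constant concentration of 4 µg/mL, with β-lactam antibiotics. The combinations were run against bacterial strains that produce β-lactamases, and the readout was the minimum inhibitory concentration of the antibiotic in the presence of the inhibitor.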

E. coli JMI 2665 = system: E. coli JMI 2665
Description: (§2) In the Tables 10 - 12, compounds herein disclosed were tested in combination with various antibiotics against metallo β-lactamase producing bacteria. Table 3: Synergy of the inhibitor Ex. 1 (4 µg/mL) in combination with antibiotics

E. coli JMI 10767 [8] = details: E. coli JMI 10767 (Wt); remark: listed apart in the source
Description: as §2

E. coli JMI 10770 = E. coli JMI 10770 (CTX-M15 (Hyper ESBL))
Description: as §2

E. coli JMI 10768 = E. coli JMI 10768 (CTX-M15 (Weak ESBL))
Description: as §2

K. pneumo JMI 2693 = K. pneumo JMI 2693 (NDM-1 (Cpase))
Description: (§3) In the Tables 10 - 12, compounds herein disclosed were tested in combination with various antibiotics against metallo β-lactamase producing bacteria.

E. coli JMI 2692 = E. coli JMI 2692 (NDM-1, TEM-1, CTX-M-15)
Description: as §3

K. pneumo JMI 2697 = K. pneumo JMI 2697 (IMP-4 (Cpase))
Description: as §3

[9] = Aztreonam + inhibitor at 4 µg/mL
[10] = Ceftazidime + inhibitor at 4 µg/mL
[11] = Meropenem + inhibitor at 4 µg/mL

CC(=O)NNC(=O)[C@@H]1CC[C@@H]2CN1C(=O)N2OS(=O)(=O)O [Ex. 5, (2S,5R)-N'-acetyl-7-oxo-6-(sulfooxy)-1,6-diazabicyclo[3.2.1]octane-2-carbohydrazide]
MIC Aztreonam + inhibitor (P. aerug JMI 149; [9]): >4 µg/mL
MIC Ceftazidime + inhibitor (P. aerug JMI 149; [10]): >16 µg/mL
MIC Meropenem + inhibitor (P. aerug JMI 149; [11]): 0.5 µg/mL
MIC (P. aerug JMI 149; substance alone, read-out: MIC): > 16 µg/mL
MIC Aztreonam + inhibitor (E.coli JMI 4103; [9]): ≤0.062 µg/mL
MIC Ceftazidime + inhibitor (E.coli JMI 4103; [10]): ≤0.25 µg/mL
MIC Meropenem + inhibitor (E.coli JMI 4103; [11]): ≤0.031 µg/mL
MIC (E.coli JMI 4103; Escherichia coli, JMI4103, substance alone): 8 µg/mL
MIC (K. pneumo JMI 4088 [1]): > 16 µg/mL
MIC (K.pneumo JMI 4109 [2]): > 16 µg/mL
MIC Aztreonam + inhibitor (A. baumanii JMI 2659; [9]): >4 µg/mL
MIC Ceftazidime + inhibitor (A. baumanii JMI 2659; [10]): >16 µg/mL
MIC Meropenem + inhibitor (A. baumanii JMI 2659; [11]): >2 µg/mL
MIC (A. baumanii JMI 2659; Acinetobacter baumannii, JMI2659, substance alone, read-out: MIC): > 16 µg/mL
MIC (K. pneumo JMI 2673 [3]): > 16 µg/mL
MIC Meropenem + inhibitor (E. coli JMI 10767 [4]; [11]): ≤0.031 µg/mL
MIC (E. coli JMI 10767 [4]; Escherichia coli, JMI10767, substance alone): 8 µg/mL
MIC Aztreonam + inhibitor (E. coli JMI 4080; E. coli JMI 4080 (Tem-10), Aztreonam + inhibitor at 4 µg/mL): ≤0.062 µg/mL
MIC Ceftazidime + inhibitor (E. coli JMI 4080; E. coli JMI 4080 (Tem-10), Ceftazidime + inhibitor at 4 µg/mL): ≤0.25 µg/mL
MIC Meropenem + inhibitor (E. coli JMI 4080; E. coli JMI 4080 (Tem-10), Meropenem + inhibitor at 4 µg/mL): ≤0.031 µg/mL
MIC (E. coli JMI 4080; Escherichia coli, JMI4080, E. coli JMI 4080 (Tem-10), substance alone): 2 µg/mL
MIC Aztreonam + inhibitor (K. pneumo JMI 2673 [5]; [9]): ≤0.062 µg/mL
MIC Ceftazidime + inhibitor (K. pneumo JMI 2673 [5]; [10]): ≤0.25 µg/mL
MIC Meropenem + inhibitor (K. pneumo JMI 2673 [5]; [11]): ≤0.031 µg/mL
MIC Aztreonam + inhibitor (P. aerug JMI 2686; [9]): >4 µg/mL
MIC Ceftazidime + inhibitor (P. aerug JMI 2686; [10]): >16 µg/mL
MIC Meropenem + inhibitor (P. aerug JMI 2686; [11]): >2 µg/mL
MIC Aztreonam + inhibitor (K. pneumo JMI 2699; [9]): ≤0.062 µg/mL
MIC Ceftazidime + inhibitor (K. pneumo JMI 2699; [10]): 2 µg/mL
MIC Meropenem + inhibitor (K. pneumo JMI 2699; [11]): ≤0.031 µg/mL
MIC (K. pneumo JMI 2699; substance alone, read-out: MIC): > 16 µg/mL
MIC Aztreonam + inhibitor (K. pneumo JMI 2674; [9]): 0.125 µg/mL
MIC Ceftazidime + inhibitor (K. pneumo JMI 2674; [10]): ≤0.25 µg/mL
MIC Meropenem + inhibitor (K. pneumo JMI 2674; [11]): 0.062 µg/mL
MIC Aztreonam + inhibitor (E. coli JMI 2671; E. coli JMI 2671 (VIM-19 (Cpase)), Aztreonam + inhibitor at 4 µg/mL): ≤0.062 µg/mL
MIC Ceftazidime + inhibitor (E. coli JMI 2671; E. coli JMI 2671 (VIM-19 (Cpase)), Ceftazidime + inhibitor at 4 µg/mL): 2 µg/mL
MIC Meropenem + inhibitor (E. coli JMI 2671; E. coli JMI 2671 (VIM-19 (Cpase)), Meropenem + inhibitor at 4 µg/mL): 0.25 µg/mL
MIC (E. coli JMI 2671; Escherichia coli, JMI2671, E. coli JMI 2671 (VIM-19 (Cpase)), substance alone): 16 µg/mL
MIC Aztreonam + inhibitor (K. pneumo JMI 4088 [6]; [9]): 0.25 µg/mL
MIC Ceftazidime + inhibitor (K. pneumo JMI 4088 [6]; [10]): ≤0.25 µg/mL
MIC Meropenem + inhibitor (K. pneumo JMI 4088 [6]; [11]): 0.125 µg/mL
MIC Aztreonam + inhibitor (K.pneumo JMI 4109 [7]; [9]): ≤0.062 µg/mL
MIC Ceftazidime + inhibitor (K.pneumo JMI 4109 [7]; [10]): ≤0.25 µg/mL
MIC Meropenem + inhibitor (K.pneumo JMI 4109 [7]; [11]): ≤0.031 µg/mL
MIC Aztreonam + inhibitor (E. coli JMI 2665; E. coli JMI 2665 (CMY-2 (Plasmid Cpase)), Aztreonam + inhibitor at 4 µg/mL): ≤0.062 µg/mL
MIC Ceftazidime + inhibitor (E. coli JMI 2665; E. coli JMI 2665 (CMY-2 (Plasmid Cpase)), Ceftazidime + inhibitor at 4 µg/mL): ≤0.25 µg/mL
MIC Meropenem + inhibitor (E. coli JMI 2665; E. coli JMI 2665 (CMY-2 (Plasmid Cpase)), Meropenem + inhibitor at 4 µg/mL): ≤0.031 µg/mL
MIC (E. coli JMI 2665; Escherichia coli, JMI2665): 2 µg/mL
MIC Aztreonam + inhibitor (E. coli JMI 10767 [8]; [9]): ≤0.062 µg/mL
MIC Ceftazidime + inhibitor (E. coli JMI 10767 [8]; [10]): ≤0.25 µg/mL
MIC Aztreonam + inhibitor (E. coli JMI 10770; [9]): ≤0.062 µg/mL
MIC Ceftazidime + inhibitor (E. coli JMI 10770; [10]): ≤0.25 µg/mL
MIC Meropenem + inhibitor (E. coli JMI 10770; [11]): ≤0.031 µg/mL
MIC Aztreonam + inhibitor (E. coli JMI 10768; [9]): ≤0.062 µg/mL
MIC Ceftazidime + inhibitor (E. coli JMI 10768; [10]): ≤0.25 µg/mL
MIC (E. coli JMI 10768; Escherichia coli, JMI10768, substance alone): 8 µg/mL
MIC Aztreonam + inhibitor (K. pneumo JMI 2693; [9]): 0.5 µg/mL
MIC Ceftazidime + inhibitor (K. pneumo JMI 2693; [10]): 0.5 µg/mL
MIC Meropenem + inhibitor (K. pneumo JMI 2693; [11]): 0.125 µg/mL
MIC (K. pneumo JMI 2693; substance alone): > 16 µg/mL
MIC Aztreonam + inhibitor (E. coli JMI 2692; [9]): ≤0.062 µg/mL
MIC Ceftazidime + inhibitor (E. coli JMI 2692; [10]): ≤0.25 µg/mL
MIC Meropenem + inhibitor (E. coli JMI 2692; [11]): ≤0.031 µg/mL
MIC (E. coli JMI 2692; Escherichia coli, JMI2692, substance alone, read-out: MIC): 2 µg/mL
MIC Aztreonam + inhibitor (K. pneumo JMI 2697; [9]): ≤0.062 µg/mL
MIC Ceftazidime + inhibitor (K. pneumo JMI 2697; [10]): >2 µg/mL
MIC Meropenem + inhibitor (K. pneumo JMI 2697; [11]): 0.125 µg/mL
MIC (K. pneumo JMI 2697; substance alone): 16 µg/mL
